# Legend:
# [1] = Plasma clearance in rat at 0.5 mg/kg, iv and 1 mg/kg, po; format: ADME, organism-based
# [2] = Half life in rat at 0.5 mg/kg, iv and 1 mg/kg, po; format: ADME, organism-based; conditions: in vivo
# Canis familiaris = assay: Hepatotoxicity in male dog assessed as decrease in alanine aminotransferase levels at >= 30 mg/kg/day, po measured over 14 days; format: toxicity, organism-based, Canis lupus familiaris; conditions: in vivo, 336 h
# Rattus norvegicus [3] = assay: Toxicity in rat assessed as hepatocellular hypertrophy with focal necrosis at 300 mg/kg/day, po measured over 14 days by microscopic analysis; format: organism-based; conditions: in vivo, 336 h
# [4] = Renal clearance in rat; format: ADME; conditions: in vivo
# [5] = Drug metabolism in rat assessed as loss of chlorobenzonitrile moiety in presence of glutathione; format: ADME
# [6] = Average plasma concentration in dog at 30 mg/kg, po administered as single dose measured on day 14; format: ADME, organism-based, Canis lupus familiaris; conditions: in vivo
# [7] = Half life in rat at 0.76 mg/kg, iv and 2.3 mg/kg, po; format: ADME, organism-based; conditions: in vivo
# [8] = Permeability in RRCK cells; format: ADME, cell-based, Canis lupus familiaris, MDCKII-LE; conditions: dog, MDCK; read-out: permeability
# [9] = Toxicity in dog assessed as histologic change in testes at 300 mg/kg/day, po measured over 14 days; format: organism-based, Canis lupus familiaris; conditions: in vivo, 336 h
# [10] = Dissociation constant, pKa of the compound; format: physicochemical
# Rattus norvegicus [11] = assay: Toxicity in rat assessed as increase in mitosis in collecting ducts at 300 mg/kg/day, po measured over 14 days by microscopic analysis; format: organism-based; conditions: in vivo, 336 h
# Cytochrome P450 1A2 = Cytochrome P450 1A2 (Homo sapiens, UniProt P05177); assay: Inhibition of CYP1A2 (unknown origin); format: ADME
# Cytochrome P450 1A2, sequence (P05177 whole entry): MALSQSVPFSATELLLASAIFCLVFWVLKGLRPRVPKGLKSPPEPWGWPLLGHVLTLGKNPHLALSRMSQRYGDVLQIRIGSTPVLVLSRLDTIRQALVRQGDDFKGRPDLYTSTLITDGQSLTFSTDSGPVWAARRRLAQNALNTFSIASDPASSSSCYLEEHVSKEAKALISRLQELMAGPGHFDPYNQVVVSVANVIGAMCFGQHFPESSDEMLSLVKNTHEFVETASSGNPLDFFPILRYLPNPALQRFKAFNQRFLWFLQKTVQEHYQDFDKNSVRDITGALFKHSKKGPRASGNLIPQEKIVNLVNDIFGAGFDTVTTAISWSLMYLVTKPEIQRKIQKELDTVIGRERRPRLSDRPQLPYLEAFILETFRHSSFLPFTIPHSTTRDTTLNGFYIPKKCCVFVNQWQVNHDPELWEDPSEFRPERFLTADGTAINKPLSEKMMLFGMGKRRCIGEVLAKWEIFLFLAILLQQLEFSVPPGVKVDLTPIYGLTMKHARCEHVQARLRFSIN
# Rattus norvegicus [12] = assay: Cardiovascular toxicity in rat assessed as small biphasic change in blood pressure at 30 to 100 mg/kg, po measured over 14 days; format: organism-based; conditions: in vivo, 336 h
# [13] = Octanol-water partition co-efficient, log D of the compound by shake flask method; format: physicochemical
# [14] = biological target: T1, Solute carrier family 22 member 12 (Homo sapiens, UniProt Q96S37); assay: Inhibition of human C-terminal eGFP-tagged URAT1 long isoform expressed in CHO cells assessed as decrease in [14C]-uric acid uptake preincubated for 15 mins followed by [14C]-uric acid addition and incubated in dark for 3 hrs by scintillation counting method; format: cell-based
# T1 sequence (Q96S37 whole entry): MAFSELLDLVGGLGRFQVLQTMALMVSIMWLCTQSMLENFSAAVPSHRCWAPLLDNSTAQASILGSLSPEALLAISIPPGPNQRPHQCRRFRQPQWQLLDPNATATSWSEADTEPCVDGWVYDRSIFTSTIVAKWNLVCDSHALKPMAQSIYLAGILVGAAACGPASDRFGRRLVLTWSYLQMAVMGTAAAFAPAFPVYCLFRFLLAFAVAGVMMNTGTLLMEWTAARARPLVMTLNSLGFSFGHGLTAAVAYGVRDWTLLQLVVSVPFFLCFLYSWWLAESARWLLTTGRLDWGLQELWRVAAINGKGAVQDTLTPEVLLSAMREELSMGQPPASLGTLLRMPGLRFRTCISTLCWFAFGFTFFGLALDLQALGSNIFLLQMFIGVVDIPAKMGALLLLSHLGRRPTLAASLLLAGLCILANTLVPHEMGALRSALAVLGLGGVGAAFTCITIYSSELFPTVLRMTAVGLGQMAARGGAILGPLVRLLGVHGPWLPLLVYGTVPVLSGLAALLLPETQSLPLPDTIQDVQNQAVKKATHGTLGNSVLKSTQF
# Rattus norvegicus [15] = assay: Cardiovascular toxicity in rat assessed as decrease in heart rate at 10 mg/kg, po measured over 14 days; format: organism-based; conditions: in vivo, 336 h
# [16] = Solubility of the compound at pH 6.5; format: physicochemical; conditions: buffer
# [17] = Toxicity in po dosed rat measured over 14 days; format: organism-based; conditions: in vivo
# [18] = Volume of distribution at steady state in rat at 0.5 mg/kg, iv and 1 mg/kg, po; format: ADME, organism-based; conditions: in vivo, read-out: Vdss
# Cytochrome P450 3A4 = Cytochrome P450 3A4 (Homo sapiens, UniProt P08684); assay: Inhibition of CYP3A4 (unknown origin); format: ADME
# Cytochrome P450 3A4, sequence (P08684 whole entry): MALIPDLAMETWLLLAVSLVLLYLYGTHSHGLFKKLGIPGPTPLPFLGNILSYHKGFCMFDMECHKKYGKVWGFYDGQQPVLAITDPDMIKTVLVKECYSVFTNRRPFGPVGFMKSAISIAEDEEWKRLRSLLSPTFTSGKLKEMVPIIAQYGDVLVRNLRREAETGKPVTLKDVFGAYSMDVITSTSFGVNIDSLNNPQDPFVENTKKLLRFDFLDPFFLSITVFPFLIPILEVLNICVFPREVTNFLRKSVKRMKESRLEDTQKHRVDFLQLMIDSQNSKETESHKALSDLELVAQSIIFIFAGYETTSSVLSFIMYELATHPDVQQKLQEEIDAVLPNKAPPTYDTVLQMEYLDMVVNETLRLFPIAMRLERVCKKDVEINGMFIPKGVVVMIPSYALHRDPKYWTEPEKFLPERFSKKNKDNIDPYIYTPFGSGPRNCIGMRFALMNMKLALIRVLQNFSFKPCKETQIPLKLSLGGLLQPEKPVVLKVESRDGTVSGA
# Cytochrome P450 2C9 = Cytochrome P450 2C9 (Homo sapiens, UniProt P11712); assay: Inhibition of CYP2C9 (unknown origin); format: ADME
# Cytochrome P450 2C9, sequence (P11712 whole entry): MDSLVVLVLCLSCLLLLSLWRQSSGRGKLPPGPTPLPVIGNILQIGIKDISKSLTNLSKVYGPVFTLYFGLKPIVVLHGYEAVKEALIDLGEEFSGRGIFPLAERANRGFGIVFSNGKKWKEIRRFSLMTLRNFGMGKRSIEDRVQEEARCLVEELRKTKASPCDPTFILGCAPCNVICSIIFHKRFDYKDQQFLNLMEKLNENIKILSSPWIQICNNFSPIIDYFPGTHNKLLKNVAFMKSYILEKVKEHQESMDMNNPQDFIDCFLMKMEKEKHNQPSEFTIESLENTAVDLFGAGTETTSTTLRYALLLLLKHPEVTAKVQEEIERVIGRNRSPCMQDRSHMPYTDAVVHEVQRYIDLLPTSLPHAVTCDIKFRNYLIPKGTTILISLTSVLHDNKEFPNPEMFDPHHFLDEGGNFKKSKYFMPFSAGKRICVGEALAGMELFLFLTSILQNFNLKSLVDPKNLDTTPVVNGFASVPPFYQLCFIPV
# [19] = Drug metabolism in dog assessed as loss of chlorobenzonitrile moiety in presence of glutathione; format: ADME, Canis lupus familiaris
# [20] = Drug excretion in bile of bile duct cannulated rat; format: ADME; conditions: read-out: Drug excretion
# [21] = Intrinsic clearance in dog liver microsomes; format: ADME, Canis lupus familiaris; conditions: read-out: CLH
# [22] = Drug metabolism in human hepatocytes assessed as loss of chlorobenzonitrile moiety in presence of glutathione; format: ADME, cell-based, Hepatocyte
# [23] = Average plasma concentration in rat at 30 mg/kg, po administered as single dose measured on day 14; format: ADME, organism-based; conditions: in vivo
# [24] = Oral bioavailability in rat at 1 mg/kg; format: ADME, organism-based; conditions: in vivo
# [25] = biological target: Solute carrier organic anion transporter family member 2B1 (Homo sapiens, UniProt O94956); assay: Drug uptake assessed as human OATP2B1-mediated drug accumulation by cell-based assay relative to wild type protein; format: ADME
# [26] = biological target: Sodium channel protein type 5 subunit alpha (Homo sapiens, UniProt Q14524); assay: Inhibition of human NaV1.5 expressed in HEK293 cells by patch clamp method; format: cell-based
# Sodium channel protein type 5 subunit alpha, sequence (Q14524 whole entry): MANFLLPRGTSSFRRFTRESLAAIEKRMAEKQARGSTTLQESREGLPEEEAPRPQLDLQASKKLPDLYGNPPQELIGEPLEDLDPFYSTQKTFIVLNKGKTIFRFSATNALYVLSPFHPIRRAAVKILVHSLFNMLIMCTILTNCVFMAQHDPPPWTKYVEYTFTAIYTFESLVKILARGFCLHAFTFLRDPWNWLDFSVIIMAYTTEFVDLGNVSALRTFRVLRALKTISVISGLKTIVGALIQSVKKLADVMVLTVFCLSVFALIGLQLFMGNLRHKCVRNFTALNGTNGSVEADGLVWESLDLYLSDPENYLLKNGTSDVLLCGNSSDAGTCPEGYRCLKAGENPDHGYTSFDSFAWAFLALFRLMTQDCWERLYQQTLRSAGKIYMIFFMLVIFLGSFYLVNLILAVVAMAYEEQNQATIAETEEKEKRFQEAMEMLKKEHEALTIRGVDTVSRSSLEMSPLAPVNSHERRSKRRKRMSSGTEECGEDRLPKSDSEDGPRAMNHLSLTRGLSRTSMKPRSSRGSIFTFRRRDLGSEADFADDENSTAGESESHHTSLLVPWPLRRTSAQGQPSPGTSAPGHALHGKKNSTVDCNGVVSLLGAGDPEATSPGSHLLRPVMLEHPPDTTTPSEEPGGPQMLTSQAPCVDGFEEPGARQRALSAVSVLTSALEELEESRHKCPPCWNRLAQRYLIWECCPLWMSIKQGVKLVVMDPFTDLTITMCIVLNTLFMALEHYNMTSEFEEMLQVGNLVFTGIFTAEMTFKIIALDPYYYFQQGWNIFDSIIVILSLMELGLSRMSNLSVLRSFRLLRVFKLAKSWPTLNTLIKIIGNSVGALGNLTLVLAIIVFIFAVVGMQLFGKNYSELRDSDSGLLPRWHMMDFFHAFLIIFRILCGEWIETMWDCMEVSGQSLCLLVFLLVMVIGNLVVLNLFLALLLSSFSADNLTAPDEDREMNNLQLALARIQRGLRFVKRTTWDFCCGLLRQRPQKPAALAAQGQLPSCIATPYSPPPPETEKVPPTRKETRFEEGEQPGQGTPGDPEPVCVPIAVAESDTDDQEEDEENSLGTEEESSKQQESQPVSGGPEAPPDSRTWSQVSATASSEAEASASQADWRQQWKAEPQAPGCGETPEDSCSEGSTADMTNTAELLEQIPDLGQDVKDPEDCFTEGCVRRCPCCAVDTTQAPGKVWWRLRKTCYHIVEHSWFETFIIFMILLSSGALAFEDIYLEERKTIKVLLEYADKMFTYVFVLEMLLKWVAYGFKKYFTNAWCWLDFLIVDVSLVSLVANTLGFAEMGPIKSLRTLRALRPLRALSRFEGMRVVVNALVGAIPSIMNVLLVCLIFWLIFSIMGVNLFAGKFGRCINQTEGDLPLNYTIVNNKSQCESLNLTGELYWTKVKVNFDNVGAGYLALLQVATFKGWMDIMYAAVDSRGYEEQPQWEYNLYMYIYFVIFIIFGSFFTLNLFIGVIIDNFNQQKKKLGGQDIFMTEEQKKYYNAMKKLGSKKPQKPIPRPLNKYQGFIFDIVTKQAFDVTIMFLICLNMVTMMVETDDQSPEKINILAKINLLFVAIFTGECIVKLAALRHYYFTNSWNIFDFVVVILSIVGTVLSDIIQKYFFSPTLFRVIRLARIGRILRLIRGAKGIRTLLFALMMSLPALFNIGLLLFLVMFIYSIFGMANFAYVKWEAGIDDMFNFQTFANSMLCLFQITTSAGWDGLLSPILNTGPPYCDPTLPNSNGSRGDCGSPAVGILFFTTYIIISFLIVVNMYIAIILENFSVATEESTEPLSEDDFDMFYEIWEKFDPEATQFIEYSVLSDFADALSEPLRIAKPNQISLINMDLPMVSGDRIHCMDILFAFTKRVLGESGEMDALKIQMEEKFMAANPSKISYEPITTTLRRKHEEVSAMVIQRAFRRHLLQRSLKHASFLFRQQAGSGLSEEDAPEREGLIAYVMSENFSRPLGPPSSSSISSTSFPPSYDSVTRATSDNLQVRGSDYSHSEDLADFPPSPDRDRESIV
# [27] = Drug metabolism in dog assessed as oxidation of chlorophenyl ring; format: ADME, Canis lupus familiaris
# [28] = Fraction unbound in dog plasma; format: ADME, cell-free, Canis lupus familiaris
# [29] = Intrinsic clearance in human hepatocytes assessed per 10^6 cells; format: ADME, cell-based, Hepatocyte; conditions: read-out: CLH
# Cytochrome P450 2C8 = Cytochrome P450 2C8 (Homo sapiens, UniProt P10632); assay: Inhibition of CYP2C8 (unknown origin); format: ADME
# Cytochrome P450 2C8, sequence (P10632 whole entry): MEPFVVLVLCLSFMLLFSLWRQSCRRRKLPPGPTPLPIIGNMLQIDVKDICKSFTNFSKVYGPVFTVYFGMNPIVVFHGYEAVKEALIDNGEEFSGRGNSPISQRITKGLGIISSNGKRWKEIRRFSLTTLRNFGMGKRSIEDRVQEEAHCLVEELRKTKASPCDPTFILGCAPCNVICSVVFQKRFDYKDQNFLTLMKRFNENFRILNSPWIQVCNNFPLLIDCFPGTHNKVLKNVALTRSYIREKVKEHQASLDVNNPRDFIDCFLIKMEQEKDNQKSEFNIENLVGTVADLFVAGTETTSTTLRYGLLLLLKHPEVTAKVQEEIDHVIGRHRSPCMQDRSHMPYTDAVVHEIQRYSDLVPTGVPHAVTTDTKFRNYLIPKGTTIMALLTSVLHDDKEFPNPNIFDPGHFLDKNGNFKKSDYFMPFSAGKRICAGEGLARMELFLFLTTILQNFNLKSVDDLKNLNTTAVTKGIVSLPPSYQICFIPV
# [30] = Plasma clearance in rat at 0.76 mg/kg, iv and 2.3 mg/kg, po; format: ADME, organism-based
# [31] = Drug metabolism in human hepatocytes assessed as oxidation of chlorophenyl ring; format: ADME, cell-based, Hepatocyte
# Cytochrome P450 2D6 = Cytochrome P450 2D6 (Homo sapiens, UniProt P10635); assay: Inhibition of CYP2D6 (unknown origin); format: ADME
# Cytochrome P450 2D6, sequence (P10635 whole entry): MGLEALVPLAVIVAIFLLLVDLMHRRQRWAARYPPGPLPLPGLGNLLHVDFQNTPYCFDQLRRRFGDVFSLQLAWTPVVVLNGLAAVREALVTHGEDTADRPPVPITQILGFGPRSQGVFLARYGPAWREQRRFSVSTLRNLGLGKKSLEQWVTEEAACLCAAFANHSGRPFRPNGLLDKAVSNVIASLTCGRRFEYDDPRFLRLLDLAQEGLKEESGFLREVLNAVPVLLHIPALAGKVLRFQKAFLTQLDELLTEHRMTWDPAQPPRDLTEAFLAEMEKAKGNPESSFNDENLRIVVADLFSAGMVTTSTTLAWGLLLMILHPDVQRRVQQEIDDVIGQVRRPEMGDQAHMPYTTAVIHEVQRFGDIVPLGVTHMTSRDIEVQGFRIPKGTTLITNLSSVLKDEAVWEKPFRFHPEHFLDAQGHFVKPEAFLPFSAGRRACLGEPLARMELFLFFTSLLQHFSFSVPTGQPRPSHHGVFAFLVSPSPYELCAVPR
# [32] = Unbound Cmax in dog at 30 mg/kg, po administered as single dose measured on day 14; format: ADME, organism-based, Canis lupus familiaris; conditions: in vivo
# [33] = biological target: Organic anion transporter 3 (Homo sapiens, UniProt Q8TCC7); assay: Inhibition of OAT3 (unknown origin)
# Organic anion transporter 3, sequence (Q8TCC7 whole entry): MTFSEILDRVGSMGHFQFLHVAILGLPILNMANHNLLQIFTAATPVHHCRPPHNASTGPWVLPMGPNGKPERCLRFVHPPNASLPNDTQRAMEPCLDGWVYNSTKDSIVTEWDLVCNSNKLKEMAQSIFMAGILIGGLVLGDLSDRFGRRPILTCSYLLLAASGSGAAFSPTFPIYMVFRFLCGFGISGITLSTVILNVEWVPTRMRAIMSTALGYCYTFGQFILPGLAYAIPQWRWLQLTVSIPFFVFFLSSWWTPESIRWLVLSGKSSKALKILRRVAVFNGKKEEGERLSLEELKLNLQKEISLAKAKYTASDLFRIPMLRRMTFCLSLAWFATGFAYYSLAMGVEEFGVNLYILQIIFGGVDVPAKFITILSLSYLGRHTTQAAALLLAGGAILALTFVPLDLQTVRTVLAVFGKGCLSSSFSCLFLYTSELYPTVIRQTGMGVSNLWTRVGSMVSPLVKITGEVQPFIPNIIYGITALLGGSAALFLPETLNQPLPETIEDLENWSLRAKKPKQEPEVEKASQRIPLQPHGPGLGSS
# [34] = Inhibition of GABAA receptor (unknown origin); set-up: species or system Homo sapiens
# [35] = Average plasma concentration in rat at 10 mg/kg, po administered as single dose measured on day 14; format: ADME, organism-based; conditions: in vivo
# [36] = Unbound Cmax in rat at 30 mg/kg, po administered as single dose measured on day 14; format: ADME, organism-based; conditions: in vivo
# Rattus norvegicus [37] = assay: Toxicity in rat assessed as hypertrophy/hyperplasia of the urothelium at 300 mg/kg/day, po measured over 14 days by microscopic analysis; format: organism-based; conditions: in vivo, 336 h
# [38] = Oral bioavailability in rat at 2.3 mg/kg; format: ADME, organism-based; conditions: in vivo
# [39] = Unbound clearance in rat at 0.76 mg/kg, iv and 2.3 mg/kg, po; format: ADME, organism-based; conditions: in vivo
# [40] = Fraction unbound in human plasma; format: ADME, cell-free
# [41] = Mutagenicity in […] by Ames test in presence of […] fraction; format: toxicity
# [42] = Drug metabolism in rat assessed as oxidation of chlorophenyl ring; format: ADME
smiles,measurement,setting,value
N#Cc1ccc(Oc2ccc(S(=O)(=O)Nc3ccc(F)cn3)cc2C#N)cc1Cl,clearance,[1],0.39 mL/min/kg
same,half-life,[2],6.7 h
same,Activity,Canis familiaris,Toxic
same,Activity,Rattus norvegicus [3],Toxic
same,CL renal,[4],0.0001 mL/min/kg
same,Drug metabolism,[5],Metabolite_Notdetected
same,Cave,[6],3980 nM
same,half-life,[7],7.1 h
same,Papp,[8],16 ×10⁻⁶ cm/s
same,Activity,[9],Toxic
same,pKa,[10],5.8
same,Activity,Rattus norvegicus [11],Toxic
same,IC50,Cytochrome P450 1A2,> 30 µM
same,Activity,Rattus norvegicus [12],Toxic
same,logD,[13],1.8
same,IC50,[14],0.012 µM
same,Activity,Rattus norvegicus [15],Toxic
same,solubility,[16],7.7 µM
same,MTD at 336 h,[17],100 mg/kg
same,Vd,[18],0.18 L/kg
same,IC50,Cytochrome P450 3A4,17.5 µM
same,IC50,Cytochrome P450 2C9,4.2 µM
same,Drug metabolism,[19],Metabolite_Detected
same,dose excreted,[20],< 0.5%
same,microsomal CLint,[21],< 18 µL/min/mg
same,Drug metabolism,[22],Metabolite_Detected
same,Cave,[23],123 nM
same,bioavailability,[24],100%
same,fold change (FC),[25],1.232
same,IC50,[26],> 30 µM
same,Drug metabolism,[27],Metabolite_Notdetected
same,fraction unbound,[28],0.0041
same,hepatocyte CLint,[29],23 µL/min/1e6 cells
same,IC50,Cytochrome P450 2C8,11.9 µM
same,clearance,[30],0.48 mL/min/kg
same,Drug metabolism,[31],Metabolite_Detected
same,IC50,Cytochrome P450 2D6,> 30 µM
same,fCmax,[32],7.419 µM
same,IC50,[33],0.72 µM
same,Ki,[34],4.8 µM
same,Cave,[35],41 nM
same,fCmax,[36],179 nM
same,Activity,Rattus norvegicus [37],Toxic
same,bioavailability,[38],100%
same,CL free,[39],229 mL/min/kg
same,fraction unbound,[40],0.0012
same,Activity,[41],Non-Toxic
same,Drug metabolism,[42],Metabolite_Detected
